In patent US20130065969A9, “Odour Compounds” (priority 2009, published 2013):

Legend:
[1] = Vapour pressure by saturated headspace trapping and GC quantification; format: physicochemical; settings: headspace concentration at constant 25° C., mean of three independent measurements
Description: For each compound the vapour pressure was determined via the following procedure: 500 mg of the test compound was added to a headspace container which was then scaled. The container was incubated at constant 25° C. until the compound reached equilibrium between the gas and the liquid phase. An exactly defined but variable volume between 0.5-1.0 L of this saturated headspace was trapped on a micro filter using Porapak Q as sorbent. After filter extraction with 30-100 μl methyl tert.-butyl ether), an aliquot of the extract was analyzed by gas chromatograph (GC). Quantification was performed by the external standard calibration method. The concentration in the original headspace was calculated (in terms of μg/l) from the headspace volume sucked through the micro filter and the aliquot of the filter extract injected into the gas chromatograph. The final headspace concentration value for a given test compound was obtained as the mean value of three independent measurements.
Further information of the technique described hereinabove may be found in the article of F. Etzweiler, E. Senn, N. Neuner-Jehle, Ber. Bunsen-Ges. Phys. Chem. 1984, 88, 578.

[2] = Odour threshold by GC detection at the sniffing port (panel of 5 persons); settings: mean of individual thresholds of 5 panelists
Description: For each compound the odour threshold value was determined by gas chromatograph (GC) detection. […] Each panelist (panel of 5 persons) smelled blind and pressed a button upon perceiving an odor. If the recorded time matched the retention time, the sample was further diluted. The last quantity detected at the correct retention time was the panelist's individual odor threshold. The final threshold value for a given test compound was obtained as the mean value of the individual threshold levels.
Further information of the technique described hereinabove may be found in N. Neuner-Jehle, F. Etzweiler. ‘Measuring of Odors’, in P. Müller. D. Lamparsky (Eds,). ‘Perfumes. Art, Science and Technology’, Elsevier Appl. Science Publ., London. 1991: pp. 153.

CC/C(=C\C(C)C)C(C)OC(C)(C)COC(=O)C1CC1 (centres unmarked) [Example 2, (3″E)-2′-(3″-Ethyl-5″-methylhex-3″-en-2″yloxy)-2′-methylpropyl cyclopropanecarboxylate]
Vapour Pressure [1]: 10.61 µg/L
Odour Threshold [2]: 2.2 ng/L

CC/C(=C\C(C)C)C(C)OC(C)(C)COC(=O)C1CCC1 (centres unmarked) [Example 4, (3″E)-2′-(3″-Ethyl-5″-methylhex-3″-en-2″-yloxy)-2′-methylpropyl cyclobutanecarboxylate]
Vapour Pressure [1]: 4.76 µg/L

C/C(=C\C(C)C)C(C)OC(C)(C)COC(=O)C1CC1 (centres unmarked) [(3″E)-2-(3,5-Dimethylhex-3-en-2-yloxy)-2-methylpropyl cyclopropanecarboxylate, reference compound]
Vapour Pressure [1]: 27.57 µg/L
Odour Threshold [2]: 5.9 ng/L
